Data from ChEMBL document CHEMBL1201862, “PubChem BioAssay data set” (2004).
Activity calls are given as the source filed them.

Key:
[1] = molecular target: Protein Wnt-3a (Mus musculus, UniProt P27467); experiment: antagonism of Wnt3a pathway luciferase reporter – Wnt-LIGHT cells, luminescence, selectivity assay for Gli-SUFU antagonist project, dose response (AID 651570); assay type: functional; conditions: read-out: IC50_Mean;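 also: Wnt-LIGHT reporter cells stimulated with conditioned medium from Wnt3a-producing cells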
[2] = Counterscreen for activators of the function of SWI/SNF related, matrix associated, actin dependent regulator of chromatin, subfamily a, member 2 (SMARCA2, BRM): Luminescence-based cell-based high throughput dose response assay to identify non-selective compounds using the VP16 reporter assay.; assay type: functional
[3] = molecular target: SWI/SNF-related matrix-associated actin-dependent regulator of chromatin subfamily A member 2 (Homo sapiens, UniProt P51531); experiment: Luminescence-based cell-based high throughput dose response assay to identify activators of the function of SWI/SNF related, matrix associated, actin dependent regulator of chromatin, subfamily a, member 2 (SMARCA2, BRM).; assay type: functional
[4] = molecular target: Ras and Rab interactor 1/Tyrosine-protein kinase ABL1 (Homo sapiens, UniProt P00519+Q13671); assay type: functional;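 also: biochemical TR-FRET dose-response test measuring inhibition of binding between Rin1 and Abl proteins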
[5] = test system: P388; experiment: cells; assay type: functional; conditions: Mus musculus
[6] = test system: P388/ADR; experiment: cells; assay type: functional; conditions: Mus musculus
[7] = test system: SN12K1; experiment: cells; assay type: functional; conditions: Homo sapiens
[8] = Luminescence Cell-Based Dose Retest to Confirm Inhibitors of Cancer Stem Cells. [Related pubchem assays (depositor defined):AID2717, AID2721]; assay type: functional; conditions: Homo sapiens
[9] = test system: Vero; experiment: cells; assay type: functional, Chlorocebus sabaeus; conditions: Chlorocebus sabaeus, Vero
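For AC50 in this document: cells exposed to compound for roughly 70 hours or longer before luminescence read.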

Protein Wnt-3a, sequence (P27467 whole entry): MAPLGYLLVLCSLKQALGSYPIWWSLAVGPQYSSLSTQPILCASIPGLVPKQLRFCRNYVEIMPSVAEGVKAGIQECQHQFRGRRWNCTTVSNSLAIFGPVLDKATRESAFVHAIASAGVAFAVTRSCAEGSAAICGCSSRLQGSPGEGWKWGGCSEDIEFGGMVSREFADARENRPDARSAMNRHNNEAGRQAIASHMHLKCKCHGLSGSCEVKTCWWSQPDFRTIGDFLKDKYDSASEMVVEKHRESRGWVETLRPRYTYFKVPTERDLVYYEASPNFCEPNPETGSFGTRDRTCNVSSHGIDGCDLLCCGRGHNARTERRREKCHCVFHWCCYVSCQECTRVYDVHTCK
SWI/SNF-related matrix-associated actin-dependent regulator of chromatin subfamily A member 2, sequence (P51531 whole entry): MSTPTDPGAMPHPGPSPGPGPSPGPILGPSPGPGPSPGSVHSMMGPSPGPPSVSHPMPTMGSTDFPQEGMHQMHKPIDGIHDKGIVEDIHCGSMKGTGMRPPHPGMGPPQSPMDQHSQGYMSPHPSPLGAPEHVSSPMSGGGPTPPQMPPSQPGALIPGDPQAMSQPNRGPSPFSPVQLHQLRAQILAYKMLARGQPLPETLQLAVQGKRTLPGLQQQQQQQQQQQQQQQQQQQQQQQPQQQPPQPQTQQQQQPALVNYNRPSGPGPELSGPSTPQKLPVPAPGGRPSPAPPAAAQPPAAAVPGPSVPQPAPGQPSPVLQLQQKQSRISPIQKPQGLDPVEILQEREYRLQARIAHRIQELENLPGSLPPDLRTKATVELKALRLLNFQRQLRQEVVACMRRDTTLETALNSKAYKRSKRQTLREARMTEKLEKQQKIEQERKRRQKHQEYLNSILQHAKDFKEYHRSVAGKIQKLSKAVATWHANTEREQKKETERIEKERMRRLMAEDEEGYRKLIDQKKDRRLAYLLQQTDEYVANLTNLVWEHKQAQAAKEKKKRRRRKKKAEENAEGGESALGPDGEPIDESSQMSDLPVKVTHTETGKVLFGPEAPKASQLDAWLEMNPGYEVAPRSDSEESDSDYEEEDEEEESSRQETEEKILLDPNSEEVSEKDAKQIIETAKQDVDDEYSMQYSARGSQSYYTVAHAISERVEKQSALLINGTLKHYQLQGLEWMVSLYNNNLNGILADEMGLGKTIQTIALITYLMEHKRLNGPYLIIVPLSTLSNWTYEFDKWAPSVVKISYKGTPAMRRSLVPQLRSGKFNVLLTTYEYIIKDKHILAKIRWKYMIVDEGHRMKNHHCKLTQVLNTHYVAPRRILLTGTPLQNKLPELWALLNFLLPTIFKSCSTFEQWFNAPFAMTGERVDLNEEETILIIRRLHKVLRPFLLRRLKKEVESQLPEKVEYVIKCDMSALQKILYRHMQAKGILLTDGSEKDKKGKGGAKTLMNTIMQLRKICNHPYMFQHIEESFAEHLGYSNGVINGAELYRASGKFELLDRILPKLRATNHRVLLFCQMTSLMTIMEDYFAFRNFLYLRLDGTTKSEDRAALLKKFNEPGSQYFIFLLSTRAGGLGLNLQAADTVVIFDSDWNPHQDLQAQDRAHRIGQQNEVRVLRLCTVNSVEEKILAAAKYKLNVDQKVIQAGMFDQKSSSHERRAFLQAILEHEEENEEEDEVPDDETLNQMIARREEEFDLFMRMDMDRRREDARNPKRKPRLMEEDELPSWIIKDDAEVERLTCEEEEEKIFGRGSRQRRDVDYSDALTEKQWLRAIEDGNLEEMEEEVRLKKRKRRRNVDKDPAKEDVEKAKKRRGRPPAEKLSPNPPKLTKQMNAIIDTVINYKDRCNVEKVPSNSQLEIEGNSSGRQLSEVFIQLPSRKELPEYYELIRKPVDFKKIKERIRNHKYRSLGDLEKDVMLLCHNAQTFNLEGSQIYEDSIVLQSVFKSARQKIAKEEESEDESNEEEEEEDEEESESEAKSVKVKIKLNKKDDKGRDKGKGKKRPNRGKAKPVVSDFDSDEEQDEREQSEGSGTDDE
Ras and Rab interactor 1/Tyrosine-protein kinase ABL1, sequence (P00519 whole entry): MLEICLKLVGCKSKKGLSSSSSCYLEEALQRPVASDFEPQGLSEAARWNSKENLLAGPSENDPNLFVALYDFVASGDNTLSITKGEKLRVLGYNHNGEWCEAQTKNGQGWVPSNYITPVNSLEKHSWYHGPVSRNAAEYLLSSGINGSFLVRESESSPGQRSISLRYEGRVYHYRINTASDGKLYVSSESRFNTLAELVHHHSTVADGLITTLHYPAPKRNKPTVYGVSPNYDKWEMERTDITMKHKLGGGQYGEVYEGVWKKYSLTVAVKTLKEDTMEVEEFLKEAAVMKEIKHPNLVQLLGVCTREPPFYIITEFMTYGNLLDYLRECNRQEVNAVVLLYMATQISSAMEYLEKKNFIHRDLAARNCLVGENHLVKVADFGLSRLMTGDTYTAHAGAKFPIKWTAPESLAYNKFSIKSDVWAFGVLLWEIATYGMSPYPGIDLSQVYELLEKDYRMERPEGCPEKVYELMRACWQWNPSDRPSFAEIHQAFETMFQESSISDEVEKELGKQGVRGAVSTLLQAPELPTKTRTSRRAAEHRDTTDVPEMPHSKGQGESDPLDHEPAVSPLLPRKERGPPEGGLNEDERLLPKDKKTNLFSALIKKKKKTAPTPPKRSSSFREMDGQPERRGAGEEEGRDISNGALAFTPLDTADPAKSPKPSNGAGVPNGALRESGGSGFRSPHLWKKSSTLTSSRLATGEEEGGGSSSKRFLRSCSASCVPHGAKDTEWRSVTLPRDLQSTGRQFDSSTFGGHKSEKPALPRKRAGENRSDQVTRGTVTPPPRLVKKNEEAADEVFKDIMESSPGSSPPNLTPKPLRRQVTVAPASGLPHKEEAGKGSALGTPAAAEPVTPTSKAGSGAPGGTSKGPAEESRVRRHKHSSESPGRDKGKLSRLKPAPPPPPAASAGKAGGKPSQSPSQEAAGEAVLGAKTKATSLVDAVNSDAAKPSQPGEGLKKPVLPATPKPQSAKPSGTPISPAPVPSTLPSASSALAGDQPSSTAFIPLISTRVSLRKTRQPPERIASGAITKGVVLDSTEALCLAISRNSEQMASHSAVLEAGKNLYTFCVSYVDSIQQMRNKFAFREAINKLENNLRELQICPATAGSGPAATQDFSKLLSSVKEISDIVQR
Ras and Rab interactor 1/Tyrosine-protein kinase ABL1, sequence (Q13671 whole entry): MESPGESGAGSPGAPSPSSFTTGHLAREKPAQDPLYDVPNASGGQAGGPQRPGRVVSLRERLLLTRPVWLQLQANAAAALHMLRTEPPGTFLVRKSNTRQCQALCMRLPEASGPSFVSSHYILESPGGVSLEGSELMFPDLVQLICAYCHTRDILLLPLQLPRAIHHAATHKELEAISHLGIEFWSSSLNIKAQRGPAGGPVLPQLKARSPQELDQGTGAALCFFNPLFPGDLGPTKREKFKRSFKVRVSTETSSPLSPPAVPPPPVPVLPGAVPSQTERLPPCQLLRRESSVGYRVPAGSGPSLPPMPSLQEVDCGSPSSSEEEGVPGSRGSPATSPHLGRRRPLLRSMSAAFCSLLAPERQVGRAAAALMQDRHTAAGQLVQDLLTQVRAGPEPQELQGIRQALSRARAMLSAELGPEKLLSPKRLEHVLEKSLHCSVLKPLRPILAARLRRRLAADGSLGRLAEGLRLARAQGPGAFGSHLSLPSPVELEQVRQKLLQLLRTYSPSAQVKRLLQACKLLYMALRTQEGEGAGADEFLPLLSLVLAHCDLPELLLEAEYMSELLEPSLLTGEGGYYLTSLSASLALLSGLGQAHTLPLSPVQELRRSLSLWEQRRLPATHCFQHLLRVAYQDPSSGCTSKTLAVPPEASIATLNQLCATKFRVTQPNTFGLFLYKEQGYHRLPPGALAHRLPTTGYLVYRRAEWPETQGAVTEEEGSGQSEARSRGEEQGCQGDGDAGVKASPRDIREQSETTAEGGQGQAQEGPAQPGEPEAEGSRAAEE

Row | Compound | GI50 [5] | GI50 [6] | GI50 [7] | further results
1 | Cc1ccc(NC(=O)COc2ccccc2C(N)=O)cc1S(=O)(=O)N1CCCCCC1 |  |  |  | IC50 [1]: 9.3 µM (active)
2 | C=C1C(=O)[C@]23C[C@H]1CCC2[C@]1(C)C(=O)CC[C@@](C)(C(=O)O)C1C[C@@H]3O (stereo not given in full) |  |  |  | EC50 [2]: > 91.2 µM (inactive); EC50 [3]: > 91.2 µM (inactive)
3 | CC[C@]12c3[nH]c4ccc(Cl)cc4c3CCN1C(=O)[C@@H](CC(=O)NCCCN(C)C)C[C@@H]2C(=O)N1CCN(C(=O)c2ccco2)CC1 |  |  |  | IC50 [4]: 46.8 µM (inactive)
4 | CSCCC(c1nnnn1C1CCCC1)N1CCC(n2c(O)nc3ccccc32)CC1 (stereo not given) |  |  |  | IC50 [4]: 26.1 µM (inactive)
5 | CCOCCOc1ccc(OCCOCC)cc1 | 3.36 µM (inactive) | 1.45 µM (inactive) | 15 µM (inactive) | 
6 | CSCC(CO)NC(=O)/C=C/c1c(C)[nH]c(=O)[nH]c1=O (stereo not given) | 818 µM (inactive) | > 875 µM (inactive) | 518 µM (inactive) | 
7 | CCOC(=O)c1c(NC(=O)C(=O)N/N=C/c2ccccc2O)sc2c1CCCCC2 |  |  |  | AC50 [8]: 2.31 µM (active); IC50 [1]: 6.55 µM (active)
8 | CC(C)=CC(=O)OC1C2C(C)=CC(O)C(O)C2(C)C2C3(O)OCC24C(CC(=O)OC14)C(C)C3O (stereo not given) | 0.0125 µM (active) | 1.97 µM (inactive) | 0.0259 µM (active) | 
9 | Nc1cc(S(=O)(=O)O)cc2cc(S(=O)(=O)O)c(/N=N/c3ccc(-c4ccc(/N=N/c5c(S(=O)(=O)O)cc6cc(S(=O)(=O)O)cc(N)c6c5O)cc4)cc3)c(O)c12 | > 100 µM (inactive) |  | > 100 µM (inactive) | 
10 | CC(=O)NCCc1ccc(C(=O)COC(=O)c2cccs2)cc1 |  |  |  | EC50 [2]: > 91.1 µM (inactive); EC50 [3]: > 91.1 µM (inactive)
11 | N[C@@H](CSCSC[C@H](N)C(=O)O)C(=O)O | > 71.1 µM (inactive) | > 225 µM (inactive) | > 225 µM (inactive) | 
12 | COc1ccc(OC)c(Cc2cnc3nc(N)nc(N)c3c2C)c1 [PIRITREXIM ISETHIONATE] |  |  |  | CC50 [9]: 0.37 µM (active); IC50 [1]: 3.35 µM (active)
